Data as given in patent US8975279B2, “Amine salts of laquinimod” (Teva Pharmaceutical Industries, Ltd., priority 2012, dated 2015).
Converted amounts (≈) assume the structure as drawn. “And” between values parts separate entries of the source, which are not always exact repeats. Equal values may be shown once. “Also recorded” adds a separate entry of the source. Where a name gives a salt, the structure may show the parent alone. Read-outs that look alike come from different tables or passages of the source. Marks after values point to notes of the source that are not given here. Values belong to the compound of their own block, whether it stands above or below them.

Assays:
[1] = Aqueous solubility of laquinimod and its salts; assay type: physicochemical; conditions: for Aqueous solubility: water
[2] = Physical stability in glass vials at +5° C., air atmosphere; assay type: physicochemical; conditions: for Sample appearance: glass vials, air atmosphere
[3] = Physical stability on exposure to atmospheric air at room temperature; assay type: physicochemical
[4] = cited from earlier work
[5] = cited from earlier work; remark: listed apart in the source
[6] = cited from earlier work; for intrinsic solubility: free laquinimod in water
[7] = +5° C., after 10 months of storage
[8] = sealed transparent glass vials at +5° C. for 6 months
[9] = +5° C., after 9 months of storage
[10] = sealed transparent glass vials at +5° C. for 3 months
[11] = RH=25-30%, T=18-20° C., 4 hours
[12] = +5° C., after 7 months of storage

Physical stability (physical change) ([2]; +5° C., after 5 months): physical change was observed
Physical stability (physical change) [2, 8]: Physical change was observed
SMILES: CCN(C(=O)c1c(O)c2c(Cl)cccc2n(C)c1=O)c1ccccc1 [Batch 3, laquinimod meglumine]
Sample appearance ([2]; +5° C., 6 months): lumped white powder, with signs of deliquescence

Aqueous solubility [1]: 1050 mg/ml H2O
Aqueous solubility ([1]; depends on preparation method and form, listed as 1.4): 1050 mg/mL
Physical stability (physical change) [2, 7]: no sign of physical change
Physical stability (physical change) [2, 8]: No physical change was observed
SMILES: CCN(C(=O)c1c(O)c2c(Cl)cccc2n(C)c1=O)c1ccccc1 [Batch 4, laquinimod meglumine]
Sample appearance ([2]; +5° C., 6 months): white powder with no signs of deliquescence

Sample appearance ([2]; +5° C., time 0 month): White glassy solid
Physical stability (physical change) [2, 8]: Physical change was observed
SMILES: CCN(C(=O)c1c(O)c2c(Cl)cccc2n(C)c1=O)c1ccccc1 [Batch 6, laquinimod choline hydroxide]
Physical stability (physical change) ([2]; +5° C., after 5 months): developed color and deliquescence occurred
Sample appearance ([2]; +5° C., 6 months): yellowish semi-solid with signs of deliquescence

Aqueous solubility [1]: > 2100 mg/ml H2O
Aqueous solubility ([1]; depends on preparation method and form, listed as 2.3): >2100** mg/ml
Physical stability (physical change) [2, 9]: no sign of physical change
Sample appearance ([2]; +5° C., 5 months): White powder
Sample appearance ([2]; +5° C., 9 months): White powder
Sample appearance ([2]; +5° C., time 0 month): White powder
Physical stability (physical change) [2, 8]: No physical change was observed
SMILES: CCN(C(=O)c1c(O)c2c(Cl)cccc2n(C)c1=O)c1ccccc1 [Batch 7, laquinimod choline hydroxide]
Sample appearance ([2]; +5° C., 6 months): white powder with no signs of deliquescence

Aqueous solubility [1]: 2000 mg/ml H2O
Aqueous solubility ([1]; depends on preparation method and form, listed as 2.4): >2000** mg/ml
Physical stability (physical change) [2, 9]: no sign of physical change
Sample appearance ([2]; +5° C., 5 months): White powder
Sample appearance ([2]; +5° C., 9 months): White powder
Sample appearance ([2]; +5° C., time 0 month): White powder
Physical stability (physical change) [2, 8]: No physical change was observed
SMILES: CCN(C(=O)c1c(O)c2c(Cl)cccc2n(C)c1=O)c1ccccc1 [Batch 8, laquinimod choline hydroxide]
Sample appearance ([2]; +5° C., 6 months): white powder with no signs of deliquescence

Aqueous solubility [1]: 1176 mg/ml H2O
Aqueous solubility ([1]; depends on preparation method and form, listed as 3.1): 1176 mg/mL
Physical stability (physical change) [2, 9]: no sign of physical change
Sample appearance ([2]; +5° C., 5 months): White flowable powder
Sample appearance ([2]; +5° C., 6 months): white flowable powder
Sample appearance ([2]; +5° C., 9 months): White flowable powder
Sample appearance ([2]; +5° C., time 0 month): White flowable powder
Physical stability (physical change) [2, 8]: No physical change was observed
SMILES: CCN(C(=O)c1c(O)c2c(Cl)cccc2n(C)c1=O)c1ccccc1 [Batch 9, laquinimod L-lysine]

Aqueous solubility [1]: 1000 mg/ml H2O
Aqueous solubility ([1]; depends on preparation method and form, listed as 3.2): 1000 mg/mL
Physical stability (physical change) [2, 9]: no sign of physical change
Sample appearance ([2]; +5° C., 5 months): White flowable powder
Sample appearance ([2]; +5° C., 6 months): white powder
Sample appearance ([2]; +5° C., 9 months): White flowable powder
Sample appearance ([2]; +5° C., time 0 month): White flowable powder
Physical stability (physical change) [2, 8]: No physical change was observed
SMILES: CCN(C(=O)c1c(O)c2c(Cl)cccc2n(C)c1=O)c1ccccc1 [Batch 10, laquinimod L-lysine]

Sample appearance ([2]; +5° C., 3 months): yellowish aggregated powder
Physical stability (overall) ([2]; refrigerator, atmospheric air, overall statement): less stable
Physical stability (physical change) [2, 10]: Physical change was observed
Physical stability [3, 11]: no change
Physical stability ([3]; RH=25-30%, T=18-20° C., 24 hours): yellowish aggregated powder
SMILES: CCN(C(=O)c1c(O)c2c(Cl)cccc2n(C)c1=O)c1ccccc1 [Batch 12, laquinimod monoethanolamine]

Aqueous solubility [1]: 1176 mg/ml H2O
Aqueous solubility ([1]; depends on preparation method and form, listed as 4.2): 1176 mg/mL
Physical stability (physical change) [2, 12]: slight aggregation was developed
Sample appearance ([2]; +5° C., 3 months): off-white powder
Sample appearance ([2]; +5° C., time 0 month): White powder
SMILES: CCN(C(=O)c1c(O)c2c(Cl)cccc2n(C)c1=O)c1ccccc1 [Batch 13, laquinimod monoethanolamine]

Physical stability (physical change) [2, 12]: no sign of physical change
Sample appearance ([2]; +5° C., 3 months): white powder
Physical stability (physical change) [2, 10]: No physical change was observed
Physical stability [3, 11]: no change
Physical stability ([3]; RH=25-30%, T=18-20° C., 16 hours): aggregated white powder
SMILES: CCN(C(=O)c1c(O)c2c(Cl)cccc2n(C)c1=O)c1ccccc1 [Batch 14, laquinimod monoethanolamine]

Aqueous solubility [1]: 625 mg/ml H2O
Aqueous solubility ([1]; depends on preparation method and form, listed as 4.4): 625 mg/mL
Sample appearance ([2]; +5° C., 3 months): off-white powder
Sample appearance ([2]; +5° C., time 0 month): White powder
Physical stability ([3]; RH=29-32%, T=18-20° C., 4 hrs): no change; remained white powder
Physical stability ([3]; RH=29-32%, T=18-20° C., 25 hrs): no change; remained white powder
SMILES: CCN(C(=O)c1c(O)c2c(Cl)cccc2n(C)c1=O)c1ccccc1 [Batch 15, laquinimod monoethanolamine]
Physical stability (physical change) [2, 10]: Small physical change was observed; also recorded: color change was developed

Aqueous solubility ([1]; depends on preparation method and form, listed as L-lysine laquinimod salt): 1000 mg/mL and 1176 mg/mL
SMILES: CCN(C(=O)c1c(O)c2c(Cl)cccc2n(C)c1=O)c1ccccc1 [laquinimod L-lysine]

solubility relative to the sodium salt ([1]; laquinimod choline hydroxide salt vs laquinimod sodium): over 14 times
Aqueous solubility ([1]; depends on preparation method and form, listed as choline hydroxide salt of laquinimod): 2000 mg/mL and 2100 mg/mL
SMILES: CCN(C(=O)c1c(O)c2c(Cl)cccc2n(C)c1=O)c1ccccc1 [laquinimod choline hydroxide]

Aqueous solubility ([1]; depends on preparation method and form, listed as meglumine laquinimod salt): 1050 mg/mL and 1330 mg/mL
SMILES: CCN(C(=O)c1c(O)c2c(Cl)cccc2n(C)c1=O)c1ccccc1 [laquinimod meglumine]

Aqueous solubility ([1]; depends on preparation method and form, listed as Laquinimod monoethanoloamine salt): 625 mg/mL and 1176 mg/mL
SMILES: CCN(C(=O)c1c(O)c2c(Cl)cccc2n(C)c1=O)c1ccccc1 [laquinimod monoethanolamine]

solubility in water according to the USP ([1]; USP descriptive term): freely soluble to soluble
SMILES: CCN(C(=O)c1c(O)c2c(Cl)cccc2n(C)c1=O)c1ccccc1 [laquinimod sodium, reference compound]
Aqueous solubility ([6]; existing sodium salt, U.S. Pat. No. 7,589,208): 138 mg/mL

Continued, compound first:

SMILES: CCN(C(=O)c1c(O)c2c(Cl)cccc2n(C)c1=O)c1ccccc1 [Batch 1, laquinimod meglumine]
Aqueous solubility [1]: 1330 mg/ml H2O
Aqueous solubility ([1]; depends on preparation method and form, listed as 1.1): 1330 mg/mL
Physical stability (physical change) [2, 7]: no sign of physical change
Sample appearance ([2]; +5° C., 6 months): White flowable powder
Sample appearance ([2]; +5° C., last row of Table 7.A, time printed 0 month): White flowable powder
Sample appearance ([2]; +5° C., time 0 month): White flowable powder
Physical stability (physical change) [2, 8]: No physical change was observed
Physical stability ([3]; RH=38%, open dish, 20 hours): No signs of aggregation or deliquescence were observed

SMILES: C[N+](C)(C)CCO.[OH-] [Choline hydroxide]
pKa [4]: 13.9

SMILES: NCCO.Oc1cc(Cl)ccc1Oc1ccc(Cl)cc1Cl [Monoethanolamine salt of triclosan]
solubility ([5]; pH not given): 5.84 mg/mL

SMILES: CNCC(O)C(O)C(O)C(O)CO.Oc1cc(Cl)ccc1Oc1ccc(Cl)cc1Cl [Triclosan meglumine salt]
solubility ([5]; pH not given): 12.43 mg/mL

SMILES: C[N+](C)(C)CCO.O=C([O-])c1ccccc1O [choline salicylate salt, choline salicylate]
solubility (in words) [5]: insoluble

SMILES: Cc1cnc(NC(=O)C2=C(O)c3ccccc3S(=O)(=O)N2C)s1 [free meloxicam, meloxicam]
solubility ([5]; pH 7.4): 0.74 mg/mL (≈ 2110 µM)

SMILES: CN1C(C(=O)Nc2ccccn2)=C(O)c2ccccc2S1(=O)=O [free piroxicam, piroxicam]
solubility ([5]; pH 7.4, unit not given): 0.17

SMILES: CC(C)Cc1ccc(C(C)C(=O)[O-])cc1.[Na+] (stereo not shown) [ibuprofen sodium salt]
solubility ([5]; pH not given): 100 mg/mL

SMILES: CCN(C(=O)c1c(O)c2c(Cl)cccc2n(C)c1=O)c1ccccc1 [laquinimod, N-ethyl-N-phenyl-1,2-dihydro-4-hydroxy-5-chloro-1-methyl-2-oxoquinoline-3-carboxamide]
intrinsic solubility [6]: 0.007 mg/mL
intrinsic solubility ([6]; listed as Free laquinimod): about 0.007 mg/ml
pKa [4]: 4.2

SMILES: CNC[C@H](O)[C@@H](O)[C@H](O)[C@H](O)CO.Cc1cnc(NC(=O)C2=C(O)c3ccccc3S(=O)(=O)N2C)s1 [meglumine salt of meloxicam]
Aqueous solubility ([5]; pH 8.57): 2.3 mg/mL

SMILES: Cc1cnc(NC(=O)C2=C(O)c3ccccc3S(=O)(=O)N2C)s1 [meloxicam sodium salt]
Aqueous solubility ([5]; pH 8.06): 2.0 mg/mL

SMILES: CN1C(C(=O)Nc2ccccn2)=C(O)c2ccccc2S1(=O)=O.NCCO [monoethanolamine salt of piroxicam]
solubility ([5]; pH 7.4): 126.2 mg/mL
